The target of the assay is T1, HSV-1 ribonucleotide reductase (Human herpesvirus 1, UniProt P08543).
T1 construct: HSV-1 ribonucleotide reductase (partially purified) was obtained from quiescent BHK-21/C13 cells infected with strain F HSV-1 virus; endogenous in cells; host or cells: quiescent BHK-21/C13 (hamster) cells infected with HSV-1 strain F; partially purified enzyme preparation
Description: Inhibition of Herpes Simplex Virus (HSV, Type 1) Ribonucleotide Reductase. The format is biochemical, herpes simplex virus type 1 (strain F). The conditions noted are these: concentration producing 50% of the maximal inhibition of enzyme activity; partially purified enzyme; mean of four assays. From the text: Inhibition of Herpes Simplex Virus (HSV, Type 1) Ribonucleotide Reductase
HSV-1 ribonucleotide reductase (partially purified) was obtained from quiescent BHK-21/C13 cells infected with strain F HSV-1 virus at 10 plaque forming units/cell as described by E. A. Cohen et al., J. Gen. Virol., 66, 733 (1985).
b) Assay and Results for Exemplified Peptides
By following the procedure described by P. Gaudreau et al., J. Biol, Chem., 262, 12413 (1987), the assay results listed in the following table were obtained. The assay result for each peptide is expressed as the concentration of the peptide producing 50% of the maximal inhibition (IC50) of enzyme activity. The number of units of the enzyme preparation used in each assay was constant, based on the specific activity of the enzyme preparation. The results are relative to the activity obtained in control experiments without peptide and represent the mean of four assays that varied less than 10% with each other.

Molecules are shown by their SMILES.

As a reminder, the IC50 is the concentration at which inhibition is half-maximal. Higher therefore signals weaker potency.

T1 sequence (P08543 whole entry): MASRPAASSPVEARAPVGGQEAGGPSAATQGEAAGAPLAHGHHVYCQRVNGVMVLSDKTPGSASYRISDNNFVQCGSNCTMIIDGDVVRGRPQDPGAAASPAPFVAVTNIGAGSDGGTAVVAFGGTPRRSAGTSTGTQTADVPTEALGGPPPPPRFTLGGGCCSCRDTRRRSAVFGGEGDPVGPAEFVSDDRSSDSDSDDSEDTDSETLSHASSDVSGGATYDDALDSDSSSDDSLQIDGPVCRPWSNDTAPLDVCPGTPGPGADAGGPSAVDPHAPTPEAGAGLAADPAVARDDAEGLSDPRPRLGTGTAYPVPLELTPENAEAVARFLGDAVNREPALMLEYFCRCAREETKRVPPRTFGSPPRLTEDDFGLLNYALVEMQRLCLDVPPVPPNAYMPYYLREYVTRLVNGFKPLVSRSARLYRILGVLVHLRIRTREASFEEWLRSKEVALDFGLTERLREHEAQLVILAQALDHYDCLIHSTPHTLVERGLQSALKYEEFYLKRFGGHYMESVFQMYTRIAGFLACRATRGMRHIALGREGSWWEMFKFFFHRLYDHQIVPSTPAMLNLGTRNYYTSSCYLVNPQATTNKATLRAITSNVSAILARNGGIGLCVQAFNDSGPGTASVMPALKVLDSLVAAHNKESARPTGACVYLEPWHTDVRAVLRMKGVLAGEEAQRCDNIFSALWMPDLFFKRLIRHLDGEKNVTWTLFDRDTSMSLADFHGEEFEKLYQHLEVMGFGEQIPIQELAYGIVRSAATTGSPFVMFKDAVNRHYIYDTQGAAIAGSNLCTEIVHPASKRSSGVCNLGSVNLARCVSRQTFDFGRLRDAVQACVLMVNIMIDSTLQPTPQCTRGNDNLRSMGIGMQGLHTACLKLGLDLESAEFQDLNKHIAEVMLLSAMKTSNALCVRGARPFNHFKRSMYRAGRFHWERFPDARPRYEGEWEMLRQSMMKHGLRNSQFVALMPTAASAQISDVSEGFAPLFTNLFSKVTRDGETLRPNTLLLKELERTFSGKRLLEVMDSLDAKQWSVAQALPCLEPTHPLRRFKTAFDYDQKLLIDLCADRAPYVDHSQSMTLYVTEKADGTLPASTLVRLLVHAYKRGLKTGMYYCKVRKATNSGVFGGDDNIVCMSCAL

Take `CCC(CC)C(=O)N[C@H](C(=O)N[C@@H](CC(=O)N1CCCC1)C(=O)N[C@@H](CC(=O)O)C(=O)NCCC(C)(C)C)C(C)(C)C` [(C2 H5)2 CHCO-Tbg-Asp(pyrrolidino)-Asp-NHCH2 CH2 C(CH)3]: the IC50 came out at 18 µM.

(Values after patent US6313095A, “Antiherpes tetrapeptide derivatives having a substituted aspartic acid side chain” (Boehringer Ingelheim (Canada), Ltd., priority 1989, dated 2001).)
